The data set is described as follows: Stability experiment: remaining amount of metformin by HPLC after heating. Format: physicochemical. The following applies: below pH 3.5. How it is done:
Tasting and stability experiments on the solutions at various pH of Example 13 were carried out, in the same manner as Experiment 1. A stability experiment was carried out by measuring the remaining amount of metformin in the solutions with HPLC after heating the solutions in vials at 60 C. for 2 weeks.

Structures can show the parent of a compound that is named as a salt.

`CN(C)C(=N)N=C(N)N` [Metformin hydrochloride]: the stability in solution entry is “not stable”.

The record behind these values is patent US6517870B1, “Oral formulation comprising biguanide and an organic acid” (Sumitomo Pharmaceuticals Company, Limited, priority 1998, dated 2003).
